These results are taken from BindingDB's records for doi:10.1016/j.bmcl.2021.128422 (Tohoku Medical and Pharmaceutical University, 2021).

For the experiment, the target named is Maltase-glucoamylase (Homo sapiens, UniProt O43451). Description: Inhibition of alpha-glucosidase (unknown origin) using p-nitrophenyl-alpha-D-glucopyranoside as substrate incubated for 50 mins by microplate reader analysis.
Maltase-glucoamylase, sequence (O43451 whole entry): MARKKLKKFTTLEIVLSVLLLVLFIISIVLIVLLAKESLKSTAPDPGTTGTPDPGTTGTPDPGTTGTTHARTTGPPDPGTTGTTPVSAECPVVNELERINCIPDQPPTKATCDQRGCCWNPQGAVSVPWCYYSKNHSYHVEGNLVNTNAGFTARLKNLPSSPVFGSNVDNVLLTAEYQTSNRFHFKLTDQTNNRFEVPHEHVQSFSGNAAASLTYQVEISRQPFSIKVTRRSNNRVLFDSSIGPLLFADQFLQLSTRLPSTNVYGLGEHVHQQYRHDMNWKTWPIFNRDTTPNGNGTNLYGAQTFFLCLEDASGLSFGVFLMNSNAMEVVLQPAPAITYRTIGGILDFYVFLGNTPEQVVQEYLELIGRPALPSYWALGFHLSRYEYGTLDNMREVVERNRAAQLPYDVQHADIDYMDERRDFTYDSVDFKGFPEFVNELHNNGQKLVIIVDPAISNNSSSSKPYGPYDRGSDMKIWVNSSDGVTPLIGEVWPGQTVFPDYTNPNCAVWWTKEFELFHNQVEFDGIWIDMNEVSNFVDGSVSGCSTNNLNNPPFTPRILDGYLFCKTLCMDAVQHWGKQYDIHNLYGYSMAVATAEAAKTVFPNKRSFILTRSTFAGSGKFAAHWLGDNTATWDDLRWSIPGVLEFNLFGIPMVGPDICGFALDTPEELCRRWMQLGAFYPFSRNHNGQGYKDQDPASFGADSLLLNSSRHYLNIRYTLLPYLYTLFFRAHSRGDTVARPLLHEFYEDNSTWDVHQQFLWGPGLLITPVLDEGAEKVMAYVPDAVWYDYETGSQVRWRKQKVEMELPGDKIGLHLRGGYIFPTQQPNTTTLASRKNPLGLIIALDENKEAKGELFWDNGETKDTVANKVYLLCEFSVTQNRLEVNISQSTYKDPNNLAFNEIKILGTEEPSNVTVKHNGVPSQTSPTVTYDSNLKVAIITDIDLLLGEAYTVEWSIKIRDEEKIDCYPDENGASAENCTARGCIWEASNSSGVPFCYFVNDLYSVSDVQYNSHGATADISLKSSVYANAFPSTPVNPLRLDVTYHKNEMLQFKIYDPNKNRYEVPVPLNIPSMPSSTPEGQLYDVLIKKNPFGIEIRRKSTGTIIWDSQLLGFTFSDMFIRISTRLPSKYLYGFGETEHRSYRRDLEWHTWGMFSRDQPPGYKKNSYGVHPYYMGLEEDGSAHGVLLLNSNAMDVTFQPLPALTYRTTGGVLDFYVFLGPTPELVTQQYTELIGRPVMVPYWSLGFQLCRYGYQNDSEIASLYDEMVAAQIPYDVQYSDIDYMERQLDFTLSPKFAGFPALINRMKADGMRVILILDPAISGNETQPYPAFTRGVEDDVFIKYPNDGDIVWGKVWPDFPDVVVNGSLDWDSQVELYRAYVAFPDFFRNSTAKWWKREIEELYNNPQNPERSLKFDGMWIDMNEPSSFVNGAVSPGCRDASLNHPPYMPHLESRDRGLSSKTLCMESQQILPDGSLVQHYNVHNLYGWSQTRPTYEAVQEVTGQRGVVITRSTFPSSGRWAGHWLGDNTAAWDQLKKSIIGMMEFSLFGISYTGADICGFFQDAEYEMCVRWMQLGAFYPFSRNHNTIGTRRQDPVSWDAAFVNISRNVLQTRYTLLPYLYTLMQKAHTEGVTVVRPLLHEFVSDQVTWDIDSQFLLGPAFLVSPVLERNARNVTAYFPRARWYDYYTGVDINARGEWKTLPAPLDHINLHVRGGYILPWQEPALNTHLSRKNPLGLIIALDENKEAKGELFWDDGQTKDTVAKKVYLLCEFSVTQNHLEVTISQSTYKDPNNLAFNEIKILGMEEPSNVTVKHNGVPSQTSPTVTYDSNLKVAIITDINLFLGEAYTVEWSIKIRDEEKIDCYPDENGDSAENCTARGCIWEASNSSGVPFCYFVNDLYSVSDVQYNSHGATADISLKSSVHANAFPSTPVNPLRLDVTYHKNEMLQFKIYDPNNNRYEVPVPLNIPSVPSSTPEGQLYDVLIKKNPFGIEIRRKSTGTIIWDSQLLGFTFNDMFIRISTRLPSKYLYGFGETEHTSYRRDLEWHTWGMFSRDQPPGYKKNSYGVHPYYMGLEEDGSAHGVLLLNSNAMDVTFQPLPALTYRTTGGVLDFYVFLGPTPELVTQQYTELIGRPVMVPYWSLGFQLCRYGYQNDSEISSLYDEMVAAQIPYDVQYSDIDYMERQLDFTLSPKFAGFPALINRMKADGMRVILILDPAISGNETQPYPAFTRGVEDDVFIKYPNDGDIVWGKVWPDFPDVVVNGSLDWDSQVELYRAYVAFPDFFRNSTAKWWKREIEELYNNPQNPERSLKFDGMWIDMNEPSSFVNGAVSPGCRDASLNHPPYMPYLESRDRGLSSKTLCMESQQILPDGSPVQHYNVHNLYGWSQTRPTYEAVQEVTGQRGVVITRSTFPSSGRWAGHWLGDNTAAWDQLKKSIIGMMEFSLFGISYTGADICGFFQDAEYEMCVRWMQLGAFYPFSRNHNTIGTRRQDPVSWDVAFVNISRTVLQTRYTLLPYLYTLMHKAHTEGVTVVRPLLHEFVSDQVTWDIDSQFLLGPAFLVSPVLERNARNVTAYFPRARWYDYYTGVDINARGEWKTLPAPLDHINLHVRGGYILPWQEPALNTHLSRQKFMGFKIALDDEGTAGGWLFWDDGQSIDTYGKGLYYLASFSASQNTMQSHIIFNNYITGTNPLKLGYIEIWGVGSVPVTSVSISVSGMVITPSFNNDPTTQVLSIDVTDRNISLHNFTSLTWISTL

In general, IC50 refers to the concentration needed to halve the response being measured. Low readings indicate greater potency, high ones weaker potency. In the case of `O=c1c(O)c(-c2ccc(O)c(O)c2)oc2cc(O)cc(O)c12` [2-(3,4-dihydroxyphenyl)-3,5,7-trihydroxy-chromone;hydrate], half-maximal inhibition (IC50) was put at 10.8 µM. `C=C1C(=O)O[C@@H]2/C=C(\C)C[C@H](O)/C=C(\C)C[C@@H](OC(=O)/C(=C\C)CO)[C@@H]12` returned a half-maximal inhibitory concentration (IC50) of over 28 µM. Compound `C=C1C(=O)O[C@@H]2/C=C(\C)CC/C=C(\C)C[C@@H](OC(=O)/C(=C/C)COC(C)=O)[C@@H]12` registered a half-inhibitory concentration (IC50) of over 25 µM. `C=C1C(=O)O[C@@H]2/C=C(\C)[C@@H](O)C/C=C(\C)C[C@@H](OC(=O)/C(=C\C)COC(C)=O)[C@@H]12` came in with an IC50 of over 25 µM. Next, `C=C1C(=O)O[C@@H]2/C=C(\C)C[C@H](O)/C=C(\C)C[C@@H](OC(=O)/C(=C\C)COC(C)=O)[C@@H]12`: over 25 µM; `C=C1C(=O)O[C@@H]2/C=C(\C)CC/C=C(\C)C[C@@H](OC(=O)/C(=C\C)CO)[C@@H]12`: over 29 µM.

`C=C1C(=O)O[C@@H]2/C=C(\C)CC/C=C(\C)C[C@@H](OC(=O)/C(=C\COC(C)=O)CO)[C@@H]12` had an IC50 of over 29 µM. `C=C1C(=O)O[C@@H]2/C=C(\C)CC/C=C(\C)C[C@@H](OC(=O)/C(=C/CO)CO)[C@@H]12` yielded an IC50 of over 28 µM. `C=C1C(=O)O[C@@H]2/C=C(\C)CC/C=C(\CO)C[C@@H](OC(=O)/C(C)=C/C)[C@@H]12` returned a 50% inhibitory concentration (IC50) of over 25 µM. Compound `C=C1C(=O)O[C@@H]2/C=C(\C)CC/C=C(\C)C[C@@H](OC(=O)/C(=C/C)CO)[C@@H]12` returned an IC50 of over 29 µM.
